The values that follow come from US9376376B2, “Substitute diphenylamine compounds use thereof as antitumor agents” (SINOCHEM CORPORATION, priority 2012, dated 2016).

One assay deals with leukemia HL-60 cells. Description: In vitro cell inhibition assay (MTT method), HL-60. In kind it is cell-based, human. The following applies: 48 h. The method, then: (§1) The human cancer cell lines used for this assay were lung cancer A549 and leukemia HL-60.
(§2) The A549 or HL-60 cells were picked up from cell incubator, after washed for twice using PBS, cells were digested by 0.25% trypsin, and then add medium to terminate the digestion. After cells were collected using centrifuge and re-suspended, count cells under inverted microscope and add medium to make a density was 5×10^4 cells/mL. After 100 μL aliquots were added to each well of 96-well microtiter plates, cells were cultured in 5% incubator for overnight at 37° C., then the different concentration compounds were added to each well. After incubation for 48 h, MTT solution was added to each well and plates were then incubated for 4 h. The MTT tetrazolium was reduced to formazan by living cells. Then the formazan crystals were dissolved though adding DMSO to each well. The absorbance was read at 570 nm with a microplate reader.
(Tetrazolium assays rely on reduction of a dye to a coloured formazan, in cell work by metabolically active cells.)

Another assay relates to lung cancer A549 cell. Description: In vitro cell inhibition assay (MTT method), A549. The settings on record: 48 h incubation. Format: cell-based, human. How it is done:
as §1, §2

Consider `Cc1c(Cl)c([N+](=O)[O-])cc([N+](=O)[O-])c1Nc1c(F)cccc1F` [Compound 22-33], for which the “Proliferation inhibitory effect of the compounds on HL-60 cells (% of Control)” value with leukemia HL-60 cells (concentration 0.01 μM) is −4.9 % of Control; in the assay on leukemia HL-60 cells (concentration 0.1 μM) it was −1.8 % of Control; with leukemia HL-60 cells (concentration 1 μM) it was 54.3 % of Control; in the assay on leukemia HL-60 cells (concentration 10 μM) it was 66.2 % of Control; with leukemia HL-60 cells (concentration 100 μM), 81.2 % of Control. For the same molecule, the “Proliferation inhibitory effect of the compounds on A549 cell (% of Control)” value with lung cancer A549 cell (0.01 μM) was −1.6 % of Control; in the assay on lung cancer A549 cell (0.1 μM) it was −1.1 % of Control; in the assay with lung cancer A549 cell (1 μM), 61.3 % of Control; in the assay on lung cancer A549 cell (10 μM) it was 78.7 % of Control; with lung cancer A549 cell (100 μM), 90.3 % of Control.
On to `N#Cc1c(Cl)c(Cl)c(Nc2c(Cl)cc([N+](=O)[O-])cc2Cl)c(C#N)c1Cl` [Compound 6-99], for which the “Proliferation inhibitory effect of the compounds on HL-60 cells (% of Control)” value is given as 8.6 % of Control in the assay with leukemia HL-60 cells (concentration 0.01 μM); 34.2 % of Control in the assay with leukemia HL-60 cells (concentration 0.1 μM); 60.2 % of Control in the assay on leukemia HL-60 cells (concentration 1 μM); 56.5 % of Control with leukemia HL-60 cells (concentration 10 μM); 54.8 % of Control in the assay with leukemia HL-60 cells (concentration 100 μM). Moreover, the “Proliferation inhibitory effect of the compounds on A549 cell (% of Control)” value is reported as 0 % of Control in the assay with lung cancer A549 cell (0.01 μM); 0 % of Control in the assay with lung cancer A549 cell (0.1 μM); 55.0 % of Control in the assay with lung cancer A549 cell (1 μM); 83.6 % of Control in the assay on lung cancer A549 cell (10 μM); 86.3 % of Control with lung cancer A549 cell (100 μM).
Take `Cc1c(Cl)c([N+](=O)[O-])cc([N+](=O)[O-])c1Nc1c(Cl)cc(C(F)(F)F)cc1Cl` [Compound 22-101]: the “Proliferation inhibitory effect of the compounds on HL-60 cells (% of Control)” value with leukemia HL-60 cells (concentration 0.01 μM) is 8.3 % of Control; in the assay on leukemia HL-60 cells (concentration 0.1 μM), 5.5 % of Control; in the assay on leukemia HL-60 cells (concentration 1 μM), 48.6 % of Control; with leukemia HL-60 cells (concentration 10 μM), 73.4 % of Control; in the assay on leukemia HL-60 cells (concentration 100 μM) it was 64.7 % of Control. Also, the “Proliferation inhibitory effect of the compounds on A549 cell (% of Control)” value is given as 13.7 % of Control in the assay on lung cancer A549 cell (0.01 μM); 21.4 % of Control with lung cancer A549 cell (0.1 μM); 19.1 % of Control in the assay with lung cancer A549 cell (1 μM); 66.4 % of Control with lung cancer A549 cell (10 μM); 97.5 % of Control in the assay with lung cancer A549 cell (100 μM).
Take `N#Cc1c(Cl)c(Cl)c(Nc2c(Br)cc([N+](=O)[O-])cc2Br)c(C#N)c1Cl` [Compound 6-114]: the “Proliferation inhibitory effect of the compounds on HL-60 cells (% of Control)” value in the assay on leukemia HL-60 cells (concentration 0.01 μM) was −0.4 % of Control; in the assay with leukemia HL-60 cells (concentration 0.1 μM) it was 10.0 % of Control; in the assay with leukemia HL-60 cells (concentration 1 μM), 20.7 % of Control; in the assay with leukemia HL-60 cells (concentration 10 μM), 87.5 % of Control; in the assay with leukemia HL-60 cells (concentration 100 μM) it was 93.2 % of Control. Besides, the “Proliferation inhibitory effect of the compounds on A549 cell (% of Control)” value in the assay on lung cancer A549 cell (0.01 μM) was 10.1 % of Control; in the assay with lung cancer A549 cell (0.1 μM) it was 2.8 % of Control; in the assay with lung cancer A549 cell (1 μM), 11.5 % of Control; in the assay on lung cancer A549 cell (10 μM), 82.1 % of Control; with lung cancer A549 cell (100 μM) it was 94.9 % of Control.
On to `N#Cc1c(Cl)c(Cl)c(Nc2c(Cl)cccc2Cl)c(C#N)c1Cl` [Compound 6-41], for which the “Proliferation inhibitory effect of the compounds on HL-60 cells (% of Control)” value in the assay with leukemia HL-60 cells (concentration 0.01 μM) was 6.5 % of Control; in the assay with leukemia HL-60 cells (concentration 0.1 μM) it was 3.9 % of Control; with leukemia HL-60 cells (concentration 1 μM) it was 7.8 % of Control; in the assay on leukemia HL-60 cells (concentration 10 μM), 86.5 % of Control; with leukemia HL-60 cells (concentration 100 μM), 87.9 % of Control. Moreover, the “Proliferation inhibitory effect of the compounds on A549 cell (% of Control)” value is reported as 3.8 % of Control in the assay with lung cancer A549 cell (0.01 μM); 0.7 % of Control in the assay on lung cancer A549 cell (0.1 μM); 13.1 % of Control in the assay with lung cancer A549 cell (1 μM); 84.0 % of Control in the assay on lung cancer A549 cell (10 μM); 92.0 % of Control in the assay on lung cancer A549 cell (100 μM).
With `N#Cc1c(Cl)c(Cl)c(Nc2cc(C(F)(F)F)ccc2F)c(C#N)c1Cl` [Compound 6-35], the “Proliferation inhibitory effect of the compounds on HL-60 cells (% of Control)” value in the assay on leukemia HL-60 cells (concentration 0.01 μM) is −8.3 % of Control; in the assay with leukemia HL-60 cells (concentration 0.1 μM), −5.0 % of Control; in the assay with leukemia HL-60 cells (concentration 1 μM) it was −1.8 % of Control; in the assay with leukemia HL-60 cells (concentration 10 μM), 72.3 % of Control; with leukemia HL-60 cells (concentration 100 μM), 89.9 % of Control. Moreover, the “Proliferation inhibitory effect of the compounds on A549 cell (% of Control)” value in the assay on lung cancer A549 cell (0.01 μM) is 0.5 % of Control; in the assay on lung cancer A549 cell (0.1 μM) it was −0.8 % of Control; with lung cancer A549 cell (1 μM), 1.0 % of Control; in the assay with lung cancer A549 cell (10 μM), 58.6 % of Control; in the assay on lung cancer A549 cell (100 μM), 92.7 % of Control.
For `N#Cc1c(Cl)c(Cl)c(Nc2ccc(Cl)cc2Cl)c(C#N)c1Cl` [Compound 6-39], the “Proliferation inhibitory effect of the compounds on HL-60 cells (% of Control)” value with leukemia HL-60 cells (concentration 0.01 μM) was 11.9 % of Control; with leukemia HL-60 cells (concentration 0.1 μM) it was 14.7 % of Control; with leukemia HL-60 cells (concentration 1 μM), 31.0 % of Control; with leukemia HL-60 cells (concentration 10 μM), 78.5 % of Control; with leukemia HL-60 cells (concentration 100 μM), 80.8 % of Control. Also, the “Proliferation inhibitory effect of the compounds on A549 cell (% of Control)” value was 18.3 % of Control in the assay on lung cancer A549 cell (0.01 μM); 18.8 % of Control in the assay on lung cancer A549 cell (0.1 μM); 19.6 % of Control in the assay with lung cancer A549 cell (1 μM); 24.9 % of Control in the assay on lung cancer A549 cell (10 μM); 92.6 % of Control with lung cancer A549 cell (100 μM).
Turning to `N#Cc1c(Cl)c(Cl)c(Nc2ccccc2)c(C#N)c1Cl` [Compound 6-1], the “Proliferation inhibitory effect of the compounds on HL-60 cells (% of Control)” value is on record as 11.5 % of Control with leukemia HL-60 cells (concentration 0.01 μM); 10.4 % of Control in the assay on leukemia HL-60 cells (concentration 0.1 μM); 18.8 % of Control in the assay on leukemia HL-60 cells (concentration 1 μM); 63.9 % of Control in the assay on leukemia HL-60 cells (concentration 10 μM); 61.9 % of Control in the assay with leukemia HL-60 cells (concentration 100 μM). The “Proliferation inhibitory effect of the compounds on A549 cell (% of Control)” value with lung cancer A549 cell (0.01 μM) was 13.1 % of Control; in the assay with lung cancer A549 cell (0.1 μM) it was 12.1 % of Control; in the assay with lung cancer A549 cell (1 μM) it was 16.9 % of Control; in the assay on lung cancer A549 cell (10 μM), 20.4 % of Control; with lung cancer A549 cell (100 μM), 19.8 % of Control.
Take `Cc1c(Cl)c([N+](=O)[O-])cc([N+](=O)[O-])c1Nc1c(Cl)cc(Cl)cc1C#N` [Compound 22-120]: the “Proliferation inhibitory effect of the compounds on HL-60 cells (% of Control)” value with leukemia HL-60 cells (concentration 0.01 μM) is 9.6 % of Control; with leukemia HL-60 cells (concentration 0.1 μM), 20.5 % of Control; in the assay on leukemia HL-60 cells (concentration 1 μM), 19.7 % of Control; in the assay with leukemia HL-60 cells (concentration 10 μM) it was 63.1 % of Control; with leukemia HL-60 cells (concentration 100 μM), 61.0 % of Control. The “Proliferation inhibitory effect of the compounds on A549 cell (% of Control)” value with lung cancer A549 cell (0.01 μM) is listed as 0.8 % of Control; with lung cancer A549 cell (0.1 μM), 0 % of Control; in the assay with lung cancer A549 cell (1 μM) it was 9.8 % of Control; in the assay with lung cancer A549 cell (10 μM), 86.8 % of Control; in the assay on lung cancer A549 cell (100 μM), 92.1 % of Control.
`Cc1c(Cl)c([N+](=O)[O-])cc([N+](=O)[O-])c1Nc1c(F)cc(Cl)cc1F` [Compound 22-93]: the “Proliferation inhibitory effect of the compounds on HL-60 cells (% of Control)” value was −3.6 % of Control with leukemia HL-60 cells (concentration 0.01 μM); −7.1 % of Control with leukemia HL-60 cells (concentration 0.1 μM); 6.8 % of Control in the assay with leukemia HL-60 cells (concentration 1 μM); 70.4 % of Control with leukemia HL-60 cells (concentration 10 μM); 95.4 % of Control with leukemia HL-60 cells (concentration 100 μM). The “Proliferation inhibitory effect of the compounds on A549 cell (% of Control)” value is given as −2.2 % of Control in the assay on lung cancer A549 cell (0.01 μM); −1.8 % of Control in the assay with lung cancer A549 cell (0.1 μM); −0.2 % of Control with lung cancer A549 cell (1 μM); 73.7 % of Control in the assay with lung cancer A549 cell (10 μM); 91.4 % of Control with lung cancer A549 cell (100 μM).
